The numbers were not newly measured in patent publication US7189798B2, “Composition containing mixture of dihydroxybutane sulfonates” (Eastman Chemical Company, priority 2001, dated 2007), which cites them from elsewhere.

Structures are written as SMILES.

For the series the following is noted: in vivo.

`OC[C@H]1O[C@@H]2O[C@H]3[C@H](O)[C@@H](O)[C@@H](O[C@H]4[C@H](O)[C@@H](O)[C@@H](O[C@H]5[C@H](O)[C@@H](O)[C@@H](O[C@H]6[C@H](O)[C@@H](O)[C@@H](O[C@H]7[C@H](O)[C@@H](O)[C@@H](O[C@H]8[C@H](O)[C@@H](O)[C@@H](O[C@H]1[C@H](O)[C@H]2O)O[C@@H]8CO)O[C@@H]7CO)O[C@@H]6CO)O[C@@H]5CO)O[C@@H]4CO)O[C@@H]3CO` [β-CD, β-cyclodextrin]: the “Renal and liver damage after parenteral administration” value was “cause renal and liver damage”.
